Assays:
[1] = system: H2O2-induced SH-SY5Y cells; experiment: Cell viability in H2O2-induced SH-SY5Y cells (MTT assay); type: cell-based, human; conditions: 5 μM pretreatment 3 h, then 400 μM H2O2 24 h; for protective effect on cell viability: vs nonpretreated group
Protocol: Cell viability was evaluated using the MTT assay. […] Cells were pretreated for 3 h with aminochalcones or resveratrol at various concentrations ranging from 0 to 100 μM before being incubated with 400 μM H2O2 (Sigma-Aldrich, Cat. no. 31642) for 24 h. Cells treated only with culture media, DMEM with 10% FBS, were used as the control. Each well received 5 mg/mL of MTT solution at the end of the incubation time, and the samples were then incubated at 37 °C in the dark for 2–4 h. Following the removal of the solution, 0.04 N HCl in isopropyl alcohol was added to dissolve the formazan crystals. A microplate reader programed to read at 570 nm was used to detect the MTT formazan product. The absorbance of formazan is directly proportional to the number of viable cells. The viability of the cells was expressed in percentages compared with the viability of the control group.[23]

[2] = system: H2O2-induced SH-SY5Y cells; experiment: LDH assay of cell membrane damage in H2O2-induced SH-SY5Y cells; type: cell-based, human; conditions: 5 μM pretreatment, vs H2O2 alone
Protocol: LDH leakage into the culture medium of aminochalcones with or without H2O2-treated cells was assessed by using an LDH assay kit to determine the neuroprotective effect of aminochalcones against H2O2-induced cell damage. To prepare samples for the LDH test, 2 mL of SH-SY5Y cells at 1.0 × 10^5 cells/mL concentration was added and incubated overnight in 6-well plates at 37 °C. Then, each well was pretreated for 3 h with 5 μM aminochalcones or resveratrol before exposure to 400 μM H2O2 for another 24 h. Subsequently, the LDH assay kit (Cat. no. MAK066) from Sigma-Aldrich (St. Louis, MO, USA) was used to measure the LDH activity, following the manufacturer’s instructions. The assay relies on the conversion of lactate to pyruvate by the enzyme lactate dehydrogenase and further produces NADH as a product, giving rise to an increase in absorbance at 450 nm.

[3] = Cytotoxicity assay (MTT) against MRC-5 cells; type: cell-based; conditions: human, MRC-5 cells (normal embryonic lung cell line), read-out: Cytotoxic activity (IC50)
Protocol: MRC-5 cells were grown in DMEM supplemented with 100 U/mL penicillin–streptomycin and 10% FBS. Briefly, the cells suspended in the corresponding culture medium were inoculated in 96-well microtiter plates (Corning Inc., NY, USA) at 10,000–20,000 cells per well and then incubated at 37 °C under a humidified atmosphere with 5% CO2 for 24 h. An equal volume of additional medium containing serial dilutions of test compounds, positive control (doxorubicin), or negative control (DMSO) was added to the desired final concentrations. Microtiter plates were further incubated for 48 h. The cell viability in each well was determined by staining with the MTT assay reagent (Molecular Probes, Cat. no. M6494).[75]–[77] MTT solution ([…]) was added to all wells of the assay, and the plates were incubated for 2–4 h. Subsequently, DMSO was added to dissolve the resulting formazan by sonication. The plates were read on a microplate reader (Molecular Devices, USA) using a test wavelength of 550 nm and a reference wavelength of 650 nm. The IC50 value was determined as the concentration of compound that inhibited the cell growth by 50%.

[4] = system: H2O2-induced SH-SY5Y cells; experiment: Cell morphology observation in H2O2-induced SH-SY5Y cells; type: cell-based, human; conditions: 5 μM pretreatment 3 h, then 400 μM H2O2 24 h
Protocol: After adhering, the cells were treated with aminochalcones for 3 h. The culture media was refreshed, followed by an additional 24 h of exposure to 400 μM H2O2.

[5] = system: H2O2-induced SH-SY5Y cells; experiment: Intracellular ROS production (DCFDA) in H2O2-induced SH-SY5Y cells; type: cell-based, human; conditions: for effect on intracellular ROS production: 5 μM pretreatment, vs H2O2 alone
Protocol: Green fluorescent DCF was generated by the oxidation of nonfluorescent carboxy-DCFDA, which is caused by intracellular ROS. SH-SY5Y cells (200 μL) at 1.0 × 10^5 cells/mL were seeded and incubated overnight in 96-well plates at 37 °C. Then, each well was pretreated for 3 h with 5 μM aminochalcones or resveratrol before exposure to 400 μM H2O2 for an additional 24 h. Subsequently, carboxy-H2DCFDA was introduced to the to a final concentration of 10 μM in the culture media and incubated at 37 °C for 30 min under dark conditions. Intracellular ROS production was instantly evaluated using a microplate reader at an emission wavelength of 528 nm and an excitation wavelength of 485 nm. The intracellular ROS production of the cells was expressed as percentages compared with the control group.[79]

[6] = system: H2O2-induced SH-SY5Y cells; experiment: Mitochondrial membrane potential (Rhodamine-123) in H2O2-induced SH-SY5Y cells; type: cell-based, human; conditions: 5 μM pretreatment, vs H2O2 alone
Protocol: Mitochondrial-specific fluorescent dye, Rhodamine-123 (Sigma-Aldrich, Cat. no. R8004), was used to determine the MMP. The reduction in the fluorescence signal correlated with the decrease in MMP, which referred to a decrease in the mitochondrial function. SH-SY5Y cells (200 μL) at 1.0 × 10^5 cells/mL were plated onto the 96-well plate and incubated overnight at 37 °C. Then, each well was pretreated for 3 h with 5 μM aminochalcones or resveratrol before being challenged with 400 μM H2O2 for further 24 h. Cells were then exposed to Rhodamine-123 at a final concentration of 10 μM in the culture media and incubated at 37 °C for 30 min under dark conditions. At the end of incubation, cells were washed twice with PBS to remove the excess dye. MMP levels were then measured with a microplate reader at excitation and emission wavelengths of 488 and 525 nm, respectively. The MMP of the cells was expressed as percentages compared with the control group.[80]

[7] = system: SH-SY5Y cells; experiment: SH-SY5Y cell viability, compounds alone (MTT assay); type: cell-based, human; conditions: compounds alone at 10 μM, no H2O2
Protocol: Cell viability was evaluated using the MTT assay. Briefly, 96-well plates were seeded with SH-SY5Y cells at a density of 1 × 10^5 cells/mL and allowed to attach. Cells were pretreated for 3 h with aminochalcones or resveratrol at various concentrations ranging from 0 to 100 μM before being incubated with 400 μM H2O2 (Sigma-Aldrich, Cat. no. 31642) for 24 h. Cells treated only with culture media, DMEM with 10% FBS, were used as the control. Each well received 5 mg/mL of MTT solution at the end of the incubation time, and the samples were then incubated at 37 °C in the dark for 2–4 h. Following the removal of the solution, 0.04 N HCl in isopropyl alcohol was added to dissolve the formazan crystals. A microplate reader programed to read at 570 nm was used to detect the MTT formazan product. The absorbance of formazan is directly proportional to the number of viable cells. The viability of the cells was expressed in percentages compared with the viability of the control group.[23]

SMILES	protective effect on cell viability [1]	effect on cell membrane damage [2]	IC50 at 48 h [3]	effect on cell morphology [4]	effect on intracellular ROS production [5]	effect on mitochondrial function [6]	effect on cell viability, compounds alone [7]	viability at 5 µM ([1]; Homo sapiens, SH-SY5Y, read-out: cell viability (percentage relative to control))	activity at 5 µM ([5]; Homo sapiens, SH-SY5Y, 5 μM pretreatment 3 h, then 400 μM H2O2 24 h, H2O2 alone 135.54%, read-out: intracellular ROS production (fluorescence intensity, % of control))	melting point
COc1cc(/C=C/C(=O)c2ccc(N)cc2)cc(OC)c1OC [Compound 3, (E)-1-(4-Aminophenyl)-3-(3,4,5-trimethoxyphenyl)prop-2-en-1-one]	significantly improved the cell viability	reduced cell membrane damage	70.3 ± 3.78 µM	prevented morphological aberration	reduced intracellular ROS production	prevented mitochondrial dysfunction	hazardous to the treated cells	–	–	–
COc1ccc(/C=C/C(=O)c2ccc(N)cc2)c(OC)c1OC [Compound 2, (E)-1-(4-Aminophenyl)-3-(2,3,4-trimethoxyphenyl)prop-2-en-1-one]	significantly improved the cell viability	reduced cell membrane damage	99.3 ± 4.15 µM	prevented morphological aberration	reduced intracellular ROS production	prevented mitochondrial dysfunction	–	–	–	–
COc1cccc2c1C(=O)c1c(O)c3c(c(O)c1C2=O)C[C@@](O)(C(=O)CO)C[C@@H]3O[C@H]1C[C@H](N)[C@H](O)[C@H](C)O1 [doxorubicin, reference compound]	–	–	3.03 ± 0.09 µM	–	–	–	–	–	–	–
Oc1ccc(/C=C/c2cc(O)cc(O)c2)cc1 [resveratrol, reference compound]	–	–	–	morphological alterations were reduced	–	–	–	85%	123 ± 2%	–
COc1ccc(/C=C/C(=O)c2ccc(N)cc2)cc1O [Compound 4, (E)-1-(4-Aminophenyl)-3-(3-hydroxy-4-methoxyphenyl)prop-2-en-1-one]	low protective potential	–	115.3 ± 1.05 µM	–	–	–	hazardous to the treated cells	–	–	187 to 189 °C
COc1cccc(/C=C/C(=O)c2ccc(N)cc2)c1 [Compound 5, (E)-1-(4-Aminophenyl)-3-(3-methoxyphenyl)prop-2-en-1-one]	significantly improved the cell viability	reduced cell membrane damage	116 ± 8.08 µM	prevented morphological aberration	reduced intracellular ROS production	prevented mitochondrial dysfunction	–	–	–	–
